# Measured values: paper PMC8909834, “An Orally Bioavailable and Highly Efficacious Inhibitor of CDK9/FLT3 for the Treatment of Acute Myeloid Leukemia” (Cancers, 2022)
# Tests used:
# Assay in all cases: Kinase Hotspot radiolabel assay
# Type in all cases: biochemical
# Conditions in all cases: read-out: % Residual Activity
# [1] = target: T1, Aurora A (Homo sapiens, UniProt O14965)
# T1 construct: purchased Reaction Biology Corporation (Kinase HotSpot)
# Method: (§1) Kinase assay. The ADP Glo^TM kinase assay (Promega, Madison, WI, USA) was used to assess the inhibition by CDDD11-8 of CDKs 1, 2, 4, 6, 7, and 9, as well as the mutant isoforms of FLT3. The assays were performed in accord with the manufacturer’s protocol (Promega) as described previously. Briefly, serial three-fold dilutions of CDDD11-8 were prepared in 100% DMSO from a 2 mM stock solution, followed by 1:40 dilution into Milli-Q water. Subsequently, 1 µL of each sample was incubated with 4 µL of kinase mixture containing a particular CDK enzyme and its substrate, standard kinase buffer [3 mM MgCl2, 50 mM HEPES-NaOH pH 7.5, 3 mM MnCl2, 3 µM Na-orthovanadate, 1 mM dithiothreitol (DTT)], kinase dilution buffer (containing 0.25 mg/mL PEG20,000, 50 mM HEPES-NaOH pH 7.5, 1 mM DTT), and ATP at 37 °C for 30 to 40 min. The final reaction mixture contained 0.5% DMSO in all samples, and the applied kinase concentrations were 1, 1, 10, 40, 20, and 50 nM for CDK1, 2, 4, 6, 7, and 9, respectively. The reaction was stopped by adding ADP-Glo reagent and the mixture was incubated further in the dark at room temperature for 40 min. As a final step, kinase detection reagent was added to each mixture and incubated at room temperature for 30 to 60 min. Luminescence was read using an EnVision® multilabel plate reader (PerkinElmer, Beaconsfield, UK), and half-maximum inhibitory concentrations (IC50) were calculated using a non-linear regression model with a variable slope, plotting log (inhibitor concentration) vs. response using the following formula: Ar%=Bottom+Top−Bottom/1+Inhibitor Concentration/IC50^HillSlope where the relative activity Ar (%) is the signal relative to the controls, IC50 is the half maximum concentration, Hillslope is the steepness of the dose-response curve, Top and Bottom are plateaus reflecting the maximum and minimum in responses on the Y-axis (GraphPad Prism version 7, San Diego, CA, USA). Ki values were calculated from the IC50 using the Cheng−Prusoff equation [32]. Extensive specificity assessment was carried out by Reaction Biology Corporation (Malvern, PA, USA) with 369 kinases using 1 µM CDDD11-8 concentration in a Kinase Hotspot radiolabel assay (for experimental details, please see (Reaction Biology https://www.reactionbiology.com/). Subsequently, Ki values were determined for kinases with greater than 90% inhibition.
# [2] = target: T2, BRK (Homo sapiens, UniProt Q13882)
# T2 construct: purchased Reaction Biology Corporation (Kinase HotSpot)
# Method: as §1
# [3] = target: T3, CK1g2 (Homo sapiens, UniProt P78368)
# T3 construct: purchased Reaction Biology Corporation (Kinase HotSpot)
# Method: as §1
# [4] = target: T4, EGFR (Homo sapiens, UniProt P00533)
# T4 construct: purchased Reaction Biology Corporation (Kinase HotSpot)
# Method: as §1
# [5] = target: T5, ERBB2/HER2 (Homo sapiens, UniProt P04626)
# T5 construct: purchased Reaction Biology Corporation (Kinase HotSpot)
# Method: as §1
# [6] = target: T6, FRK/PTK5 (Homo sapiens, UniProt P42685)
# T6 construct: purchased Reaction Biology Corporation (Kinase HotSpot)
# Method: as §1
# [7] = target: T7, HIPK1 (Homo sapiens, UniProt Q86Z02)
# T7 construct: purchased Reaction Biology Corporation (Kinase HotSpot)
# Method: as §1
# [8] = target: T8, ITK (Homo sapiens, UniProt Q08881)
# T8 construct: purchased Reaction Biology Corporation (Kinase HotSpot)
# Method: as §1
# [9] = target: T9, JNK1 (Homo sapiens, UniProt P45983)
# T9 construct: purchased Reaction Biology Corporation (Kinase HotSpot)
# Method: as §1
# [10] = target: T10, MARK3 (Homo sapiens, UniProt P27448)
# T10 construct: purchased Reaction Biology Corporation (Kinase HotSpot)
# Method: as §1
# [11] = target: T11, MKK7 (Homo sapiens, UniProt O14733)
# T11 construct: purchased Reaction Biology Corporation (Kinase HotSpot)
# Method: as §1
# [12] = target: T12, MNK2 (Homo sapiens, UniProt Q9HBH9)
# T12 construct: purchased Reaction Biology Corporation (Kinase HotSpot)
# Method: as §1
# [13] = target: T13, MRCKa/CDC42BPA (Homo sapiens, UniProt Q5VT25)
# T13 construct: purchased Reaction Biology Corporation (Kinase HotSpot)
# Method: as §1
# [14] = target: T14, MYO3A (Homo sapiens, UniProt Q8NEV4)
# T14 construct: purchased Reaction Biology Corporation (Kinase HotSpot)
# Method: as §1
# [15] = target: T15, NEK4 (Homo sapiens, UniProt P51957)
# T15 construct: purchased Reaction Biology Corporation (Kinase HotSpot)
# Method: as §1
# [16] = target: T16, PAK4 (Homo sapiens, UniProt O96013)
# T16 construct: purchased Reaction Biology Corporation (Kinase HotSpot)
# Method: as §1
# [17] = target: T17, PAK6 (Homo sapiens, UniProt Q9NQU5)
# T17 construct: purchased Reaction Biology Corporation (Kinase HotSpot)
# Method: as §1
# [18] = target: T18, PDGFRa (Homo sapiens, UniProt P16234)
# T18 construct: purchased Reaction Biology Corporation (Kinase HotSpot)
# Method: as §1
# [19] = target: T19, PKCd (Homo sapiens, UniProt Q05655)
# T19 construct: purchased Reaction Biology Corporation (Kinase HotSpot)
# Method: as §1
# [20] = target: T20, PKCiota (Homo sapiens, UniProt P41743)
# T20 construct: purchased Reaction Biology Corporation (Kinase HotSpot)
# Method: as §1
# [21] = target: T21, PKG1b (Homo sapiens, UniProt Q13976)
# T21 construct: purchased Reaction Biology Corporation (Kinase HotSpot)
# Method: as §1
# [22] = target: T22, RSK1 (Homo sapiens, UniProt Q15418)
# T22 construct: purchased Reaction Biology Corporation (Kinase HotSpot)
# Method: as §1
# [23] = target: T23, SLK/STK2 (Homo sapiens, UniProt Q9H2G2)
# T23 construct: purchased Reaction Biology Corporation (Kinase HotSpot)
# Method: as §1
# [24] = target: T24, SNRK (Homo sapiens, UniProt Q9NRH2)
# T24 construct: purchased Reaction Biology Corporation (Kinase HotSpot)
# Method: as §1
# [25] = target: T25, STK16 (Homo sapiens, UniProt O75716)
# T25 construct: purchased Reaction Biology Corporation (Kinase HotSpot)
# Method: as §1
# [26] = target: T26, TAK1 (Homo sapiens, UniProt O43318)
# T26 construct: purchased Reaction Biology Corporation (Kinase HotSpot)
# Method: as §1
# [27] = target: T27, TESK2 (Homo sapiens, UniProt Q96S53)
# T27 construct: purchased Reaction Biology Corporation (Kinase HotSpot)
# Method: as §1
# [28] = target: T28, TNK1 (Homo sapiens, UniProt Q13470)
# T28 construct: purchased Reaction Biology Corporation (Kinase HotSpot)
# Method: as §1
# [29] = target: T29, ULK3 (Homo sapiens, UniProt Q6PHR2)
# T29 construct: purchased Reaction Biology Corporation (Kinase HotSpot)
# Method: as §1
# [30] = target: T30, ZIPK/DAPK3 (Homo sapiens, UniProt O43293)
# T30 construct: purchased Reaction Biology Corporation (Kinase HotSpot)
# Method: as §1
# T25 sequence (O75716 whole entry): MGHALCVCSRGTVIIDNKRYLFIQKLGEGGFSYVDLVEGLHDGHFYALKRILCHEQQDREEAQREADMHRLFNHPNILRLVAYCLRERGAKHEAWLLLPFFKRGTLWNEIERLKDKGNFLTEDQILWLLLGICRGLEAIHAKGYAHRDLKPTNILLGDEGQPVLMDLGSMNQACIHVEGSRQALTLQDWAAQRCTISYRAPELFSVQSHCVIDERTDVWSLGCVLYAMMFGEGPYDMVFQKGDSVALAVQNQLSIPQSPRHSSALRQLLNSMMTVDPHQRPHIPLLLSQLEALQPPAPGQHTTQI
# T12 sequence (Q9HBH9 whole entry): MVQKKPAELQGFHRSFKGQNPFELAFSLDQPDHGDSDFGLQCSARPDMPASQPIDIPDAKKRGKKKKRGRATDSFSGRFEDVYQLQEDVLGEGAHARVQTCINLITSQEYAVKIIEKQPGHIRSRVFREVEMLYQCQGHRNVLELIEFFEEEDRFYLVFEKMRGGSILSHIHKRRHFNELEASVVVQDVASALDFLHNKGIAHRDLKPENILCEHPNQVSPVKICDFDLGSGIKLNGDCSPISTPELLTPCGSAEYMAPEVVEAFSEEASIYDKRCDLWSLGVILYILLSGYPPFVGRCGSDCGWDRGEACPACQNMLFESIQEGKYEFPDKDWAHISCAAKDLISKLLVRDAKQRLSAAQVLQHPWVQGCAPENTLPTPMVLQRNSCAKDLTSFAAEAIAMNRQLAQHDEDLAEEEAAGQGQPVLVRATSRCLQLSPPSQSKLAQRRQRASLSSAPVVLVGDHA
# T28 sequence (Q13470 whole entry): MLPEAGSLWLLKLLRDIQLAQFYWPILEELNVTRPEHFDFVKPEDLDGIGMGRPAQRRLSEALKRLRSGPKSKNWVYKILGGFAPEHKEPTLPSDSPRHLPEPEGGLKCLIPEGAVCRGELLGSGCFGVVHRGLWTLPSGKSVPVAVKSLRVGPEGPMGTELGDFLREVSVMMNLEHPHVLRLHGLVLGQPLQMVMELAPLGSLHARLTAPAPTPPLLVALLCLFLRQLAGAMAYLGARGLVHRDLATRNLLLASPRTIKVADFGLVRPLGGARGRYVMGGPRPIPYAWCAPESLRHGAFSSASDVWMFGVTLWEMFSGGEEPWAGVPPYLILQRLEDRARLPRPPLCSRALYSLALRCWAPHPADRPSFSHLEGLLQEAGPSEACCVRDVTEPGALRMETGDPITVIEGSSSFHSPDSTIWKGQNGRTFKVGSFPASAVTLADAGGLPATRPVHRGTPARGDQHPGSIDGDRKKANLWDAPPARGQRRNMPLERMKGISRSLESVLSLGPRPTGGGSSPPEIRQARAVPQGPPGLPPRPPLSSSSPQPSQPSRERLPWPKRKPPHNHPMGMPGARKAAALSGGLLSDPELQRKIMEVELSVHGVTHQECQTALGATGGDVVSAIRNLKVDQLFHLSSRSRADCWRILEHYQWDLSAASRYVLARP
# T11 sequence (O14733 whole entry): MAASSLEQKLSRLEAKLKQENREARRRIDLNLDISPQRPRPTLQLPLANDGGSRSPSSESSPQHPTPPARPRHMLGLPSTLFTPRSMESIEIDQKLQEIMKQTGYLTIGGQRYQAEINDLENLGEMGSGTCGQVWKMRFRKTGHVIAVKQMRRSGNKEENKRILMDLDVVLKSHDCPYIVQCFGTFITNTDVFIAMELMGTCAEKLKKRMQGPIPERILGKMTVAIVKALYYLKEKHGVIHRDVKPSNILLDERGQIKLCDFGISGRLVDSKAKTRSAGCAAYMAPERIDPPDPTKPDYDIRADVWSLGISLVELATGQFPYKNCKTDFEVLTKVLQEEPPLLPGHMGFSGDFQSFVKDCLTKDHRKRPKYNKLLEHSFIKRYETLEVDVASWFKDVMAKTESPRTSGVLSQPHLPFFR
# T5 sequence (P04626 23-1255): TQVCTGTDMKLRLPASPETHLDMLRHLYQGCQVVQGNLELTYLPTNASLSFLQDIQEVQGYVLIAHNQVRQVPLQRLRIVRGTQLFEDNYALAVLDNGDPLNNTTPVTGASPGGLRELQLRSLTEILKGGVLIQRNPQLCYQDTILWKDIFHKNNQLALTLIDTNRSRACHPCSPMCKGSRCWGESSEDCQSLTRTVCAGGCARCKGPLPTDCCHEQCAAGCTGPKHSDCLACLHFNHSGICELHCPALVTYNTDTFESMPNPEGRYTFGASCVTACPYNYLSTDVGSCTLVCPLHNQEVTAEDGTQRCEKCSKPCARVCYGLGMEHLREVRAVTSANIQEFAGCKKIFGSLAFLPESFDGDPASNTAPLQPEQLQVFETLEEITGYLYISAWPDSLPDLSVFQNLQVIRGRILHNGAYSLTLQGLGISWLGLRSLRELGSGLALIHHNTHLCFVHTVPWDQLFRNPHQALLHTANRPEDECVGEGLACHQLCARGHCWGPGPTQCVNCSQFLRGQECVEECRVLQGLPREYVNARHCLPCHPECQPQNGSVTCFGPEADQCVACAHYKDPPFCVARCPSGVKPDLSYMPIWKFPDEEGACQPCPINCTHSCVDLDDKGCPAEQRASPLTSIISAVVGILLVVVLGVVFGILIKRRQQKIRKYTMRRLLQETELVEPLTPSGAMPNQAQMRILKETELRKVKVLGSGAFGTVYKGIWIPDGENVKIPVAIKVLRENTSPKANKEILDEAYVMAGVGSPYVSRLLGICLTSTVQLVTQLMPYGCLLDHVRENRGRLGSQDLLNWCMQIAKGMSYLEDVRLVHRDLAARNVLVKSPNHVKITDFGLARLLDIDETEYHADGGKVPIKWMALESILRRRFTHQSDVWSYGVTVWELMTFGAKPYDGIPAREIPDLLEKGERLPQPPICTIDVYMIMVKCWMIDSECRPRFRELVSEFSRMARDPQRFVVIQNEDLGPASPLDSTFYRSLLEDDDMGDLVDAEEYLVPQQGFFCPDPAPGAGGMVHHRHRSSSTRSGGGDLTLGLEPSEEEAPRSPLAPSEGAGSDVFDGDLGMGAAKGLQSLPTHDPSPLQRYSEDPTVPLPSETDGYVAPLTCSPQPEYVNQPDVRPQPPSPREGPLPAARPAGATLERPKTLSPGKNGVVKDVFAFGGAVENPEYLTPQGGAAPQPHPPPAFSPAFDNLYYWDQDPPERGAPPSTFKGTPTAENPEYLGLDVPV
# T18 sequence (P16234 24-1089): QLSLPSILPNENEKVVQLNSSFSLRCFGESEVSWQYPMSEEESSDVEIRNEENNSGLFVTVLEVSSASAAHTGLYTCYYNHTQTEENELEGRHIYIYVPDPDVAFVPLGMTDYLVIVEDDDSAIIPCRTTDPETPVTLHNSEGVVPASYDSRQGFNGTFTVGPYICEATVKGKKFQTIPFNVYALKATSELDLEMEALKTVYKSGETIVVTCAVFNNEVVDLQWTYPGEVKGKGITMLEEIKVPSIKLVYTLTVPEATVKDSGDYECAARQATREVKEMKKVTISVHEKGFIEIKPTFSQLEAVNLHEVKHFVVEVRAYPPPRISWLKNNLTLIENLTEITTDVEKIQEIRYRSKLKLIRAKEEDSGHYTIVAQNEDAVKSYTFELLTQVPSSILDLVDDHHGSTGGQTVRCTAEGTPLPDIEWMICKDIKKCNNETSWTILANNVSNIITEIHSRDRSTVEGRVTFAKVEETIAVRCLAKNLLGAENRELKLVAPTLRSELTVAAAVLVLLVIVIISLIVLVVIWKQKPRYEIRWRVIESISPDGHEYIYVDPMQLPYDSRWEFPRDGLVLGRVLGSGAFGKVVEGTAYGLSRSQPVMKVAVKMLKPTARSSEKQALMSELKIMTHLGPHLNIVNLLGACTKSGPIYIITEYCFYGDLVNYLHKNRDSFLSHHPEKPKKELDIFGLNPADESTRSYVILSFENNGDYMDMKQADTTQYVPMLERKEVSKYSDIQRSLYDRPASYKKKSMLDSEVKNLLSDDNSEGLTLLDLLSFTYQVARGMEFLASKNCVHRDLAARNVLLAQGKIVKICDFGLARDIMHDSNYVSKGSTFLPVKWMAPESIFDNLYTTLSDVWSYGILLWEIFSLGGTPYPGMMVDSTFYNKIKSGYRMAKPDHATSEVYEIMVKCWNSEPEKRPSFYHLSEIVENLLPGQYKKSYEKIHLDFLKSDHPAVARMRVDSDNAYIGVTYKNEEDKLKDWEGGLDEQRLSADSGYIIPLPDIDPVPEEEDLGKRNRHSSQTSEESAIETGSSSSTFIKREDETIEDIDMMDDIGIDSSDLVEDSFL
# T19 sequence (Q05655 whole entry): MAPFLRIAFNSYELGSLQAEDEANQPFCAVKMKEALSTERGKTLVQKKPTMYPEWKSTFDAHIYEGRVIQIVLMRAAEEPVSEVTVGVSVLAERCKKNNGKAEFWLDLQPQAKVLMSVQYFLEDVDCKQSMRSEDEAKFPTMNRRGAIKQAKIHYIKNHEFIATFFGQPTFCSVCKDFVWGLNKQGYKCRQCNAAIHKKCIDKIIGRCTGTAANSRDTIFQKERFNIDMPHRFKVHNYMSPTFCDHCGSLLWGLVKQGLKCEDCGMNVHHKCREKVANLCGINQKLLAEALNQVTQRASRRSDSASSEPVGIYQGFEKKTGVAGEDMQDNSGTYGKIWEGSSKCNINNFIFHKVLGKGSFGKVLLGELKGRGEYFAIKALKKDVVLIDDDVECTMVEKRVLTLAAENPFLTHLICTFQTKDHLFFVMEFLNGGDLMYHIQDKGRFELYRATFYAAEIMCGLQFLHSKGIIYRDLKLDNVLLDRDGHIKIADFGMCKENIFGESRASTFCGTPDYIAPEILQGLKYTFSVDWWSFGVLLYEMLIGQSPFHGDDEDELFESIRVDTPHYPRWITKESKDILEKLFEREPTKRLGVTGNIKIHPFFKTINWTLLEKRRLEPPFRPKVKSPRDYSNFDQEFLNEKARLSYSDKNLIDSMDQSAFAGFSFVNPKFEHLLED
compound,measurement,setting,value
Cc1cnc(N[C@H]2CC[C@H](N)CC2)nc1-c1cnc2ccc(-c3ccccc3)cn12 [CDDD11-8],remaining activity at 1 µM,[1],79.3%
same,remaining activity at 1 µM,[2],87.4%
same,remaining activity at 1 µM,[3],59.4%
same,remaining activity at 1 µM,[4],82.2%
same,remaining activity at 1 µM,[5],101%
same,remaining activity at 1 µM,[6],97.1%
same,remaining activity at 1 µM,[7],105%
same,remaining activity at 1 µM,[8],87.5%
same,remaining activity at 1 µM,[9],105%
same,remaining activity at 1 µM,[10],37%
same,remaining activity at 1 µM,[11],95.4%
same,remaining activity at 1 µM,[12],83.5%
same,remaining activity at 1 µM,[13],97.7%
same,remaining activity at 1 µM,[14],87.3%
same,remaining activity at 1 µM,[15],78.8%
same,remaining activity at 1 µM,[16],99.7%
same,remaining activity at 1 µM,[17],96.6%
same,remaining activity at 1 µM,[18],49.3%
same,remaining activity at 1 µM,[19],47.6%
same,remaining activity at 1 µM,[20],88.8%
same,remaining activity at 1 µM,[21],77.5%
same,remaining activity at 1 µM,[22],56.9%
same,remaining activity at 1 µM,[23],89.8%
same,remaining activity at 1 µM,[24],100%
same,remaining activity at 1 µM,[25],75.2%
same,remaining activity at 1 µM,[26],77.8%
same,remaining activity at 1 µM,[27],100%
same,remaining activity at 1 µM,[28],55.4%
same,remaining activity at 1 µM,[29],82.8%
same,remaining activity at 1 µM,[30],102%
